Measured values from patent US8637043B2, “Compositions useful as ligands for the formyl peptide receptor like 1 receptor and methods of use thereof” (Chemocentryx, Inc., priority 2001, dated 2014).
Ends that are not written are not given here.

T1: human FPRL1 (Homo sapiens, UniProt P25090)
T1 construct: Full length cDNA encoding FPRL1 was cloned, using the polymerase chain reaction (PCR), from genomic DNA isolated from undifferentiated HL-60 cells; expressed in transfected cells; linearized FPRL1/pcDNA3.1, electroporation
T1 sequence (P25090 1-351): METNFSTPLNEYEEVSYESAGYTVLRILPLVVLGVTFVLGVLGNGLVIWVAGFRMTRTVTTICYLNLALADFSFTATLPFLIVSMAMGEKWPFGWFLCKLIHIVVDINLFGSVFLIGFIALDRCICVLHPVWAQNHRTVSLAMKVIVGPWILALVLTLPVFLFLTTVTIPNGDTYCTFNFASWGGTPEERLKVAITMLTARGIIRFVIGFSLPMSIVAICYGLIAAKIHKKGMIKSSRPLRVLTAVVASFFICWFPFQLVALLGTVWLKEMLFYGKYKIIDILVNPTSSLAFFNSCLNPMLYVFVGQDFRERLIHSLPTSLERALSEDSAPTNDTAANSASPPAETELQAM

B1: CKβ8-1(25-116): novel NH2-terminal truncated form of CKβ8-1, SEQ ID NO: 16, human recombinant chemokine (protein, listed as Homo sapiens)
chain: MLWRRKIGPQMTLSHAAGFHATSADCCISYTPRSIPCSLLESYFETNSECSKPGVIFLTKKGRRFCANPSDKQVQVCMRMLKLDTRIKTRKN
B2: CKβ8-1(1-116): alternatively spliced form of CKβ8, 116 amino acids, human recombinant chemokine (protein, listed as Homo sapiens)
chain: RVTKDAETEFMMSKLPLENPVLLDMLWRRKIGPQMTLSHAAGFHATSADCCISYTPRSIPCSLLESYFETNSECSKPGVIFLTKKGRRFCANPSDKQVQVCMRMLKLDTRIKTRKN

What was measured:
human FPRL1 = target: T1, human FPRL1; experiment: Calcium flux in FPRL1-L1.2 transfectants; type: cell-based; conditions: for Designation and FPRL1 Activity: qualitative rating high, moderate, low, see Example 9; for Notes: activity: qualitative rating, Table 6; for calcium release / mobilization: FPRL1 expressing L1.2 cells
Protocol: Ca^2+ mobilization responses were performed using the intracellular ratiometric fluorescent dye, lndo-1. Cells were loaded with Indo-1/AM (3 μM; Molecular Probes, Eugene, Oreg.) in culture medium (45 min, 20° C., 10^7 cells/ml). After dye loading, cells were washed once with 10 ml PBS) and resuspended at 10^6 cell/ml in HBSS containing 1% FBS. Cytosolic [Ca^2+] release was determined using excitation at 350 nm using a Photon Technology International fluorimeter (excitation at 350 nm, ratioed dual emission at 400 and 490 nm).
The functional activities of CKβ8-1 (25-116) were investigated in human FPRL1-L1.2 transfectants and in native L1.2 cells. Stable expression of formyl peptide-like receptor 1 (FPRL1) in L.1.2 cell was obtained as follows. Full length cDNA encoding FPRL1 was cloned, using the polymerase chain reaction (PCR), from genomic DNA isolated from undifferentiated HL-60 cells. […] Twenty micrograms of the FPRL1/pcDNA3.1 construct were linearized by digestion with Bsm1 (New England Biolabs, Beverly, Mass.) and used to transfect the murine B cell line L1.2 as follows. Twenty five million cells were washed twice and resuspended in 0.8 ml of PBS. The cells were incubated for 10 min at room temperature with the linearized FPRL/pcDNA3.1 construct DNA and transferred to a 0.4-cm cuvette, and a single electroporation pulse was applied at 250 V, 960 μF. Electroporated cells were incubated for 10 min at room temperature and transferred to culture at 37° C. in RPMI supplemented with 10% FCS. Geneticin (G418) was added to a final concentration of 800 μg/ml 48 h posttransfection and the cells plated into 96-well plates at 25,000 cells/well. After 2-3 weeks under drug selection, stable geneticin-resistant FPLR1 expressing cells were assessed for their ability to mobilize Ca^++ in response to SHAAGtide or CKbeta 8-1 at concentrations of 1 to 1000 nM.
A calcium flux test was performed on these transfectants using the method described in Example 1.
Stable expression of human FPRL1 in L1.2 cells was obtained as in Example 6. Calcium flux tests were conducted on the transfectants using the method described in Example 1. Chemokines (CKβ8(1-99), CKβ8(25-99), CKβ8-1(1-116) and CKβ8-1(25-116), were prepared as in Example 1. W peptides 1 and 2 were obtained as in Example 6. In addition, and the following SHAAGtide sequences and truncated variants (prepared as in Example 8) were tested:
All ligands were added in a dose response manner and the peak calcium flux response determined.

mature Dendritic Cells = experiment: Calcium mobilization, mature dendritic cells; type: cell-based, human
Protocol: Human recombinant CKβ8-1(25-116) chemokine was obtained from R&D Systems (Minneapolis, Minn.). The peptide SHAAGtides SEQ ID NO:1 and SEQ ID NO:6 and a control protein (the reverse sequence of SEQ ID NO:1) were synthesized and HPLC-purified using routine techniques as described in Sambrook et al., 1989, and Ausubel et al., 1999.
Immature DCs were derived by culturing CD14+ monocytes in the presence of GM-CSF and IL4. Briefly, monocytes were cultured in a T-175 flask at 10^6 cells/ml in RPMI/10% FCS. Recombinant human GM-CSF and IL4 were added on day 0, 2, 4 and 6 to a final concentration of 1000 u/ml and 500 u/ml, respectively. Cells were harvested on day 7 as immature DCs and characterized for surface protein expression by FACS analysis. DC maturation was carried out by culturing day 6 immature DCs in macrophage-conditioned medium (MCM). Briefly, day 6 immature DCs were harvested by centrifugation and resuspended in MCM at 10^6 cells/ml. The medium was supplemented with 1000 u/ml of GM-CSF and 500 u/ml IL4. After three more days of culture, cells were harvested as mature DCs and characterized by surface protein expression flow cytometry.
MCM was prepared as follows: PBMCs isolated from buffy coat were incubated at 37° C. in a plastic flask pre-coated with 10 mg/ml human IgG (Sigma, St Louis, Mo.) for 30 minutes. After 30 minutes, non-adherent cells were removed and adherent cells were washed three times with DPBS, then cultured in RPMI/10% human serum. Conditioned-medium was collected after 24 hours. TNF-α concentration, which is critical for DC maturation, was determined by using a TNF-α ELISA kit (R&D Systems, Minn.). The final TNF-α level in MCM was adjusted to 50 u/mi by mixing with RPMI/10% human serum, and was stored at −80 freezer until use.
Ca^2+ mobilization responses were performed using an intracellular ratiometric fluorescent dye, Indo-1. Cells were loaded with Indo-1/AM (3 μM; Molecular Probes (Eugene, Oreg.)) in culture medium (45 min, 20° C., 10^7 cells/mi). After dye loading, cells were washed once (10 ml PBS) and resuspended at 10^6 cell/ml in HBSS containing 1% FBS. Cytosolic [Ca^2+] release was determined using excitation at 350 nm using a Photon Technology International fluorimeter (excitation at 350 nm, ratioed dual emission at 400 and 490 nm).

| Molecule | Designation and FPRL1 Activity (human FPRL1) | Notes: activity (human FPRL1) | calcium flux (mature Dendritic Cells) | calcium release / mobilization (human FPRL1) | calcium release / mobilization (human FPRL1; listed as CKβ8(25-116)) | calcium release / mobilization (human FPRL1; listed as CKβ8(1-116)) |
| --- | --- | --- | --- | --- | --- | --- |
| MLWRRKIGPQMTLSHAAY [SEQ ID NO: 6] | high | high | partially active |  |  |  |
| MLWRRKIGPQMTLSHAAG [SEQ ID NO: 1] | high | high | partially active |  |  |  |
| B1 |  |  | partially active | stimulated calcium release | induced calcium mobilization |  |
| B2 |  |  |  | no activity |  | did not give significant mobilization |
